Laboratory results published in PubChem BioAssay AID1645865 (Buhrlage Lab, Dana-Farber Cancer Institute and Novartis …, 2021).
Activity calls are given as the source filed them.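 Rule for the calls: active = maximal inhibition of the USP30 enzyme reaching 30% or more across the dose series; inactive = the rest.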

What follows are compounds tested against Ubiquitin carboxyl-terminal hydrolase 30 (Homo sapiens) (UniProt Q70CQ3) (assay: ubiquitin-specific protease 30 DUB inhibitors, concentration-effect, biochemical, validation of primary actives (AID 1645865)). Conditions: purified USP30, Ub-rhodamine cleavage, fluorescence, 2 h.
Chain of Ubiquitin carboxyl-terminal hydrolase 30 (Homo sapiens) (Q70CQ3 whole entry, looked up): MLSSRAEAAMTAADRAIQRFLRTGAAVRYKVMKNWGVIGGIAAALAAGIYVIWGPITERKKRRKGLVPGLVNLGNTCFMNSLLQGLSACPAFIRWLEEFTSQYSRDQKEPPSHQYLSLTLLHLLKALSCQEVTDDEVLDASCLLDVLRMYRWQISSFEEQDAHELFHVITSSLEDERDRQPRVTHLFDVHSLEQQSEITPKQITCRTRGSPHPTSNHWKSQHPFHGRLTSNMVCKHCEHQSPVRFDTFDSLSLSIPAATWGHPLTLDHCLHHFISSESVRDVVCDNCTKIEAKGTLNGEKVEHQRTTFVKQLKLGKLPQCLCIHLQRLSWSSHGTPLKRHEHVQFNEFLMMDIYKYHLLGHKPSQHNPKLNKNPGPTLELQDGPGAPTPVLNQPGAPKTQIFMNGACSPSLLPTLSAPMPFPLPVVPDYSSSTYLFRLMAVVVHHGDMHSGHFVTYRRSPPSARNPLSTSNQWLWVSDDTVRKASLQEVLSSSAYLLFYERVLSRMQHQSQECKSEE

| Compound | IC50 |
| --- | --- |
| NC(=O)CCC(=O)N[C@H]1C[C@H]2CN(Cc3ccccc3)c3ccccc3CN2C1 | > 50 µM (inactive) |
| Cc1cc(C)cc(-n2cnc3cc(C(=O)NCCC4=CCCCC4)ccc32)c1 | > 50 µM (inactive) |
| O=C(CNc1ccc(F)c(Cl)c1)Nc1ccc2c(c1)OCCO2 | > 50 µM (inactive) |
| CCc1nc2cc(NC(=O)c3cccc(N4CCCC4=O)c3)ccc2n1C | > 50 µM (inactive) |
| Nc1c(C(=O)NCCc2ccccc2)nnn1-c1ccc(F)cc1 | 31.2 µM |
| Cc1ccc(C(=O)NCC(=O)Nc2nc3ccccc3[nH]2)c(C)c1 | 39.6 µM |
| COc1ccccc1-c1nc2c3c(ncn2n1)Oc1c(c(C)nn1-c1ccccc1)C3c1cccnc1 (configuration not stated) | 2.85 µM |
| CC(=O)c1ccc(NC(=O)C[n+]2cc(-c3ccc(Cl)cc3)n3c2CCC3)cc1 | > 50 µM (inactive) |
| CCCCN(CC)c1ncnc2c1sc1nc(-c3ccco3)c3c(c12)CC(C)(C)OC3 | > 50 µM (inactive) |
| COCCn1c(=O)[nH]c2cc(C(=O)NCCNc3ccc([N+](=O)[O-])cc3C#N)ccc2c1=O | 2.35 µM |
| CC(Sc1n[nH]c2nc3ccccc3n12)C(=O)Nc1ccc2c(c1)OCCO2 (configuration not stated) | > 50 µM (inactive) |
| O=C(CN1C(=O)NC2(CCCCC2)C1=O)Nc1ccc([N+](=O)[O-])cc1 | 33.5 µM |
| CCOC(=O)c1ccc(NC(=O)c2cnc(N3CCOCC3)nc2)cc1 | > 50 µM (inactive) |
| COc1ccc(OCC(=O)Nc2ccc(C)c(OCc3cc(=O)n4ccccc4n3)c2)cc1 | 4.77 µM |
| CC(C)(C)C(=O)NC(c1ccccc1)c1nnc(N2CCOCC2)o1 (configuration not stated) | > 50 µM (inactive) |
| Cc1cc(C)cc(-n2ccnc(SCC(=O)Nc3cccc(Cl)c3)c2=O)c1 | 7.47 µM |
| N#Cc1cc2c(nc1SCC(=O)NCc1ccccc1)CCCC2 | > 50 µM (inactive) |
| Cc1nn(Cc2ccccc2)c(C)c1C(=O)NC1CCCc2ccccc21 (configuration not stated) | > 50 µM (inactive) |
| O=C(COc1ccc2ccccc2c1)Nc1cccc2ccccc12 | 21 µM |
| Cc1ccc(NC(=O)/C=C/c2cccc(C(F)(F)F)c2)c(O)c1 | 5.24 µM |
| O=C(NCCc1ccccc1F)c1cn2cc(Cl)ccc2n1 | 38.9 µM |
| CSc1ncc(C(=O)NC(C)c2ccccc2)c(-c2ccccc2)n1 (configuration not stated) | 21.9 µM |
| Cc1cnc2nc3c(cc2c1)CN(CCc1ccc(Cl)cc1)CC3 | > 50 µM (inactive) |
| O=c1c(OC2O[C@H](CO)[C@H](O)[C@H](O)[C@H]2O)c(-c2ccc(O)cc2)oc2cc(O)cc(O)c12 (some centres not stated) | > 50 µM (inactive) |
| Cc1noc(C)c1CN1CC[C@H]2O[C@H](C(=O)NCc3ccco3)CC[C@H]21 | > 50 µM (inactive) |

| Compound | IC50 |
| --- | --- |
| CC1CCCN(S(=O)(=O)c2cc3cc(F)ccc3oc2=O)C1 (configuration not stated) | 21.6 µM |
| Cc1cc(C)c(NC(=O)CSc2nc3nccnc3c(=O)n2Cc2ccccc2Cl)c(C)c1 | 3.88 µM |
| COc1ccc(-c2nonc2NC(=O)C(c2ccccc2)c2ccccc2)cc1OC | > 50 µM (inactive) |
| Cc1cccc(COc2ccc(C3SCC(=O)Nc4n[nH]c(C)c43)cc2)c1 (configuration not stated) | 8.16 µM |
| Cc1ccc2nc(N3CCc4ccccc4C3)c3nncn3c2c1 | > 50 µM (inactive) |
| CN(C)CCc1cc2c(c3c1ccc1ccccc13)OCO2 | > 5 µM (inactive) |
| COc1ccc(CC(=O)NCc2ccc3[nH]c(C)cc3c2)cc1 | > 50 µM (inactive) |
| COc1cccc(NC(=O)C2Cc3ccccc3N2C(=O)c2ccccc2)c1 (configuration not stated) | 22.2 µM |
| CC(C)(C)c1ccc(C(=O)Nc2ccc(Cn3cncn3)cc2)cc1 | > 50 µM (inactive) |
| O=C(c1ccc2ncccc2c1)N1CCC2(C1)Nc1cccnc1NC2=NC1CCCC1 (configuration not stated) | > 50 µM (inactive) |
| Cc1ccc(Cl)cc1NC(=O)c1cc(-c2ccccn2)n[nH]1 | 6.42 µM |
| CC(C)c1cc(Nc2cccc(F)c2)n2nc(-c3cccnc3)nc2n1 | 6.35 µM |
| c1ccc(Cc2nn3c(-c4cccnc4)nnc3c3ccccc23)cc1 | 0.654 µM |
| O=C(Nc1ccc(F)cc1F)c1csc(-c2ccccc2)n1 | 22.6 µM |
| CS(=O)(=O)N1CCCc2cc(C(=O)Nc3ccc4c(c3)OCO4)ccc21 | > 50 µM (inactive) |
| COc1cccc2c1OCC(NS(=O)(=O)c1cc(C)ccc1C)C2 (configuration not stated) | > 50 µM (inactive) |
| O=C(Cn1c(=O)c2sccc2n(Cc2ccc([N+](=O)[O-])cc2)c1=O)NCCc1ccccc1 | 21.7 µM |
| C=Cc1ccc(Cn2cc(S(=O)(=O)N3CCOCC3)ccc2=O)cc1 | 28.1 µM |
| CCCC(=O)Nc1ccc(SCc2nnc(-c3ccccc3)o2)cc1 | > 50 µM (inactive) |
| Fc1ccccc1Cc1nc(-c2ccc3nncn3c2)no1 | > 50 µM (inactive) |
| O=C(Nc1ccc(F)cc1F)NC1Cc2ccccc2C1 | 29 µM |
| CC(Nc1ncnc2c1sc1nc(N3CCOCC3)c3c(c12)CCC3)c1ccccc1 (configuration not stated) | 3.65 µM |
| COc1ccc(C(=O)NCCc2nnc3ccc(SCC(=O)NCc4ccc(F)cc4)nn23)cc1 | 15.8 µM |
| COc1ccccc1-c1ccc(CN2[C@@H](c3ccccc3)C[C@@H]3NC(=O)CCC[C@H]32)cc1 | > 50 µM (inactive) |
| CCCCCCCc1cc(O)cc(OC(=O)c2c(CCCCCCC)cc(O)cc2O[C@H]2O[C@H](C(O)CO)[C@@H](O)[C@@H]2O)c1 (some centres not stated) | 40.3 µM |

| Compound | IC50 |
| --- | --- |
| Cc1ccc(NC(=O)Cc2nnc3cc(-c4nc(C)no4)ccn23)cc1 | 4.06 µM |
| COc1ccc(S(=O)(=O)N2CCC3(CC2)OC(=O)Nc2ccccc23)cc1 | 37.1 µM |
| CCn1cc2c(n1)c(=O)n(Cc1ccccc1)c(=O)n2CC(=O)Nc1ccc(OC)cc1 | 2.58 µM |
| CC(=O)c1oc2nc3c(c(-c4ccc(Cl)cc4)c2c1N)CCc1ccccc1-3 | > 50 µM (inactive) |
| CC1=C[C@@H](C)CC[C@H]2O[C@@H](C3=C(O)C(=O)C(C)=C4O[C@](O)(C=C43)[C@@H](C)C[C@H](C)C1)[C@H](C)[C@@H](O)[C@H]2C | 22.2 µM |
| CNC(=O)c1cc2c(=O)n3cccc(C)c3nc2n1Cc1ccccc1 | 2.29 µM |
| COc1ncccc1CN1CCn2c(Cn3cccn3)cnc2C1C (configuration not stated) | > 50 µM (inactive) |
| COc1ccccc1CNC(=O)CCCn1c(=O)c2ccccc2n(CC(=O)N2CCN(c3ccccc3)CC2)c1=O | 34.8 µM |
| Cc1cc(N2CCN(c3ncccn3)CC2)nc2ccc(NC(=O)/C=C/c3ccccc3Cl)cc12 | 4.88 µM |
| COc1cc(OC)c(NC(=O)Cn2c(=O)n(Cc3ccccc3Cl)c(=O)c3cc(OC)c(OC)cc32)cc1Cl | 2.28 µM |
| O=C(/C=C/c1ccc(F)cc1)Nc1ccc2c(c1)OCCO2 | > 50 µM (inactive) |
| CCS(=O)(=O)N1CCc2cc(C(=O)Nc3ccc4c(c3)OCCO4)ccc21 | > 50 µM (inactive) |
| O=C1NC(=O)/C(=C/c2ccc(OC(=O)c3ccc(Cl)cc3Cl)cc2)N1 | 2.41 µM |
| CCCCCCCCCC(CCCCCCCCCC(=O)O)O[C@H]1O[C@@H](COC(C)=O)[C@H](O)[C@@H](O)[C@H]1OC(=O)CC(=O)O (some centres not stated) | 21.7 µM |
| Cc1ccc(NC(=O)c2ccc(N3CCOCC3)nn2)cc1F | 39.7 µM |
| O=[N+]([O-])c1ccc(N2CCN(c3ncnc4c3[nH]c3ccc(F)cc34)CC2)cc1 | 0.156 µM |
| COc1ccccc1CNC(=O)CCCCn1c(=O)c2ccccc2n(Cc2ccccc2C#N)c1=O | 15.1 µM |
| Cc1cc(C)nc(-n2nc(C)c3c2NC(=O)CSC3c2ccc(F)cc2F)n1 (configuration not stated) | 31.3 µM |
| CC(C)N(C(=O)Cn1c(=O)[nH]c2ccccc21)c1ccccc1 | > 50 µM (inactive) |
| CCn1c(SCC(=O)N2c3ccccc3CC2C)nnc1-c1ccc2c(c1)OCCO2 (configuration not stated) | 23.2 µM |
| Cc1cc(C)c2nc3c(cc2c1)CN(Cc1ccco1)C(=O)O3 | > 50 µM (inactive) |
| C[C@@H]1O[C@@H](O[C@H]2[C@H](O[C@H]3[C@H](O[C@H]4CC[C@@]5(C)[C@@H](CC[C@]6(C)[C@@H]5CC=C5[C@@H]7CC(C)(C)CC(=O)[C@]7(C)CC[C@]56C)[C@@]4(C)CO)O[C@H](C(=O)O)[C@@H](O)[C@@H]3O)OC[C@@H](O)[C@@H]2O)[C@H](O)[C@H](O)[C@H]1O | > 50 µM (inactive) |
| O=C(c1cc2ccccc2o1)N1CC=C(c2ccccc2)CC1 | > 50 µM (inactive) |
| O=C(Nc1nc2c(s1)COCC2)c1cc(-c2ccco2)[nH]n1 | > 50 µM (inactive) |
| Cc1ccc(C2c3cccn3CCN2C(=O)Nc2ccccc2)cc1 (configuration not stated) | > 50 µM (inactive) |

| Compound | IC50 |
| --- | --- |
| CC(C)NC(=O)CN1C(=O)CC(C)Sc2ccc(S(=O)(=O)N3CCCCC3)cc21 (configuration not stated) | 27.1 µM |
| C=C1CCC2[C@](C)(CCC[C@]2(C)C(=O)OC)[C@H]1CCc1ccoc1CNC(C)C (some centres not stated) | > 50 µM (inactive) |
| Cc1[nH]nc(NC(=O)C2COc3ccccc3O2)c1-c1ccccc1 (configuration not stated) | 40.7 µM |
| COc1ccc(/C=C/C(=O)N2CCc3ccccc32)cc1S(=O)(=O)N1CCOCC1 | > 50 µM (inactive) |
| O=C(Nc1ccc2c(c1)OCCO2)c1cc(CN2CCCC2)on1 | > 50 µM (inactive) |
| CCN(CC)c1cc(C)c2cc(NC(=O)c3ccncc3)ccc2n1 | > 50 µM (inactive) |
| CSc1nc2ncc3c(=O)n(CCc4ccccc4)ccc3n2n1 | > 50 µM (inactive) |
| COc1ccc(C2C(C(=O)C(C)(C)C)N3c4ccccc4C=CC3C23C(=O)c2ccccc2C3=O)c(OC)c1 (configuration not stated) | > 50 µM (inactive) |
| O=C(CC(C(=O)Nc1ccc2c(c1)OCO2)C(=O)c1ccccc1)Nc1ccc(Cl)cc1F (configuration not stated) | 2.61 µM |
| CSc1nc2ncn(CC(=O)Nc3cccc(Cl)c3)c(=O)c2s1 | 4.75 µM |
| Cc1ccc(Cn2nnc(-c3ccccc3Cl)n2)cc1 | > 50 µM (inactive) |
| COc1ccc(-c2cc(C(=O)N3CCN(c4ccc([N+](=O)[O-])cc4)CC3)[nH]n2)cc1 | > 50 µM (inactive) |
| COc1ccc(C(=O)Nc2ccccc2C(=O)NCc2ccccc2)cc1 | 30.4 µM |
| O=C(Cc1cccnc1)Nc1ccc(N2CCN(C3CCCCC3)C2=O)nc1 | > 50 µM (inactive) |
| COc1ccc(-n2cc(C(=O)NCc3ccc4c(c3)OCO4)c3ccccc3c2=O)cc1 | 31.9 µM |
| CCCCNC(=O)C1Sc2nnc(-c3ccccc3)n2NC1c1ccccc1 (configuration not stated) | 21.8 µM |
| Cc1ccccc1Cc1nc(-c2ccc(=O)[nH]c2)no1 | > 50 µM (inactive) |
| CCc1ccc(NC(=O)CN=C2NS(=O)(=O)C(c3ccc(CC)cc3)=C2C)cc1 | 4.67 µM |
| COC(=O)c1ccc2c(=O)n(CCCCCC(=O)NCc3cccc(Cl)c3)c(=O)[nH]c2c1 | 1.69 µM |
| Cc1ccc(NC(=O)Cn2c(Nc3cccc(C)c3)nc(C)cc2=O)cc1 | 26.6 µM |
| CC(=O)Nc1ccc(-n2cnc(C(=O)NCc3ccc(C)cc3)c2)nc1 | 21.2 µM |
| COc1ccc(Cn2cnc3c([nH]c4ccc(Br)cc43)c2=O)cc1 | 0.833 µM |
